Data from patent publication US8633206B2, “Pyrrolo[2,3-D]pyrimidine compounds” (Pfizer Inc., priority 2009, dated 2014).

Key:
Assay type in all cases: biochemical
JAK1 = JAK1 (Homo sapiens (Human), UniProt P23458); test: JAK enzymatic assay (peptide mobility shift), JAK1; details: recombinant JAK1 20 nM, IRS-1 peptide, 240 minutes
JAK3 = JAK3 (Homo sapiens (Human), UniProt P52333); test: JAK enzymatic assay (peptide mobility shift), JAK3; details: recombinant JAK3 1 nM, JAKtide peptide, 90 minutes
JAK2 = JAK2 (Homo sapiens (Human), UniProt O60674); test: JAK enzymatic assay (peptide mobility shift), JAK2; details: recombinant JAK2 2 nM, JAKtide peptide, 150 minutes
Chain of JAK2 (O60674 808-1132): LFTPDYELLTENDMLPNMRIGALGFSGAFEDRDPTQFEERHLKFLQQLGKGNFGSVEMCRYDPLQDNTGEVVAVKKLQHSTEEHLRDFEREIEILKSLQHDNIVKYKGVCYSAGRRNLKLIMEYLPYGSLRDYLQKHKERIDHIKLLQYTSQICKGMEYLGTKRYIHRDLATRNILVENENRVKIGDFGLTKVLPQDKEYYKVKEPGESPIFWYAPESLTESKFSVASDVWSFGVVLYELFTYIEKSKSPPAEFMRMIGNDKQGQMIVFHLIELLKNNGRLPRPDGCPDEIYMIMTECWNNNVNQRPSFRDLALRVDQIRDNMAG

Chain of JAK3 (P52333 781-1124): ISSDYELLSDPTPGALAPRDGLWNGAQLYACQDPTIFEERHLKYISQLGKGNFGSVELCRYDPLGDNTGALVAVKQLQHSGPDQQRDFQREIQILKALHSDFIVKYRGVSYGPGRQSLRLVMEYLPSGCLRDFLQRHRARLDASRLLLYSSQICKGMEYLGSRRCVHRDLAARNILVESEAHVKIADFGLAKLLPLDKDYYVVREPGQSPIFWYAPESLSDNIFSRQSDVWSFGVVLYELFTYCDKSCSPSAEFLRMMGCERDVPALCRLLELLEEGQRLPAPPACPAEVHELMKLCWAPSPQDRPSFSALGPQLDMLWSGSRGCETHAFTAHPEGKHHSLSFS
Chain of JAK1 (P23458 whole entry): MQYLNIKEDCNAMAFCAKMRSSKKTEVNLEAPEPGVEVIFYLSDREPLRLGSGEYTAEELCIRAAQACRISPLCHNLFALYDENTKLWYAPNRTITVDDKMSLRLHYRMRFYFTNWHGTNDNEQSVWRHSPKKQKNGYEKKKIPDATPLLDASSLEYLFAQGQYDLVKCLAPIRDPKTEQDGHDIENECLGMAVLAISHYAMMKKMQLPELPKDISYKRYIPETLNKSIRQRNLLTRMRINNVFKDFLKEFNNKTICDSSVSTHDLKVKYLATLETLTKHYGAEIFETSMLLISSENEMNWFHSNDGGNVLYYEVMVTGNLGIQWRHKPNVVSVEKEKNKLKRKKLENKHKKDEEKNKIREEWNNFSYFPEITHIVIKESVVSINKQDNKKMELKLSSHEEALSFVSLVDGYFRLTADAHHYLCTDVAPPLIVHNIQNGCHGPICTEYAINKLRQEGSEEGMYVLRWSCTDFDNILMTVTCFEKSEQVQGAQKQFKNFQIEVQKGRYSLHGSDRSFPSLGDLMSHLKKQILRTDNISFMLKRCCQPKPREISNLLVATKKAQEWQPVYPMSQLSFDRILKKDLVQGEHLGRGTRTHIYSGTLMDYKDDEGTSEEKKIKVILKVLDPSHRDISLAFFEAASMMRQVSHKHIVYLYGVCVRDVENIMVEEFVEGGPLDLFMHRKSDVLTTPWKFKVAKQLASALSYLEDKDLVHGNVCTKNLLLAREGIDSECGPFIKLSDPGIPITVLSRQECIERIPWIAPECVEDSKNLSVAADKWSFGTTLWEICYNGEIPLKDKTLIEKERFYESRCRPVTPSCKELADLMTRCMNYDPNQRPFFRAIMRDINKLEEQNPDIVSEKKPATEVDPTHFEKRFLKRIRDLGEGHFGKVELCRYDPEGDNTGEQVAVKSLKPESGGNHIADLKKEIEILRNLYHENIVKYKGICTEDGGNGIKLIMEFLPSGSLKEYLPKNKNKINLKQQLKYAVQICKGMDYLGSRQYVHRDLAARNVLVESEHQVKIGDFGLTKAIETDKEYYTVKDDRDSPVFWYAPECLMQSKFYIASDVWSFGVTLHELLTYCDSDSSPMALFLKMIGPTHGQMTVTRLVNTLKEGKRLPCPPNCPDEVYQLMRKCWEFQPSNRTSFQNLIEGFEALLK

Structure (SMILES)	IC50 (JAK1) [nM]	IC50 (JAK3) [nM]	IC50 (JAK2) [nM]
CN(c1ncnc2[nH]ccc12)[C@H]1CC[C@H](CS(=O)(=O)N2CC[C@@H](c3ccccc3)C2)CC1 [Example 100, N-methyl-N-(trans-4-{[(3-phenylpyrrolidin-1-yl)sulfonyl]methyl}cyclo-hexyl)-7H-pyrrolo[2,3-d]pyrimidin-4-amine]	6.89	414	40.7
CCN(CC)C(=O)CO[C@@H]1CCN(S(=O)(=O)C[C@H]2CC[C@H](N(C)c3ncnc4[nH]ccc34)CC2)C1 [Example 101, N,N-diethyl-2-({(3R)-1-[({trans-4-[methyl(7H-pyrrolo[2,3-d]pyrimidin-4-yl)amino]cyclohexyl}-methyl)sulfonyl]pyrrolidin-3-yl}oxy)acetamide]	4.86	584	35.9
CN(c1ncnc2[nH]ccc12)[C@H]1CC[C@H](CS(=O)(=O)N2CC[C@H](Cc3cnccn3)C2)CC1 [Example 102, N-methyl-N-[trans-4-({[3-(pyrazin-2-ylmethyl)-pyrrolidin-1-yl]sulfonyl}-methyl)cyclohexyl]-7H-pyrrolo[2,3-d]pyrimidin-4-amine]	19.9	283	28.6
CN(c1ncnc2[nH]ccc12)[C@H]1CC[C@H](CS(=O)(=O)N2CC[C@](O)(c3ccccn3)C2)CC1 [Example 103, 1-[({trans-4-[methyl(7H-pyrrolo[2,3-d]pyrimidin-4-yl)-amino]cyclohexyl}-methyl)sulfonyl]-3-pyridin-2-ylpyrrolidin-3-ol]	10.6	294	35.8
CN(c1ncnc2[nH]ccc12)[C@H]1CC[C@H](CS(=O)(=O)N2CC[C@H](Cc3ccccc3)C2)CC1 [Example 104, N-(trans-4-{[(3-benzyl-pyrrolidin-1-yl)sulfonyl]-methyl}cyclohexyl)-N-methyl-7H-pyrrolo[2,3-d]-pyrimidin-4-amine]	18	721	65.4
CCN1CCN(C[C@H]2CCN(S(=O)(=O)C[C@H]3CC[C@H](N(C)c4ncnc5[nH]ccc45)CC3)C2)C(=O)C1=O [Example 105, 1-ethyl-4-({1-[({trans-4-[methyl(7H-pyrrolo[2,3-d]pyrimidin-4-yl)amino]cyclohexyl}methyl)-sulfonyl]pyrrolidin-3-yl}methyl)piperazine-2,3-dione]	17.8	755	90.4
Cc1cccc(C[C@H]2CCCN2S(=O)(=O)C[C@H]2CC[C@H](N(C)c3ncnc4[nH]ccc34)CC2)n1 [Example 106, N-methyl-N-{trans-4-[({2-[(6-methylpyridin-2-yl)methyl]pyrrolidin-1-yl}sulfonyl)methyl]cyclo-hexyl}-7H-pyrrolo[2,3-d]pyrimidin-4-amine]	3.6	322	24.3
CN(c1ncnc2[nH]ccc12)[C@H]1CC[C@H](CS(=O)(=O)N2CC[C@H](c3ccccn3)C2)CC1 [Example 107, N-methyl-N-(trans-4-{[(3-pyridin-2-ylpyrrolidin-1-yl)sulfonyl]methyl}cyclo-hexyl)-7H-pyrrolo[2,3-d]pyrimidin-4-amine]	2.54	36.3	6.22
CN(c1ncnc2[nH]ccc12)[C@H]1CC[C@H](CS(=O)(=O)N2CCC2)CC1 [Example 109, N-{trans-4-[(azetidin-1-ylsulfonyl)methyl]cyclo-hexyl}-N-methyl-7H-pyrrolo[2,3-d]pyrimidin-4-amine]	14.3	289	39.4
CN(c1ncnc2[nH]ccc12)[C@H]1CC[C@H](CS(=O)(=O)N2CC(c3ncccn3)C2)CC1 [Example 110, N-methyl-N-(trans-4-{[(3-pyrimidin-2-ylazetidin-1-yl)sulfonyl]methyl}cyclo-hexyl)-7H-pyrrolo[2,3-d]pyrimidin-4-amine]	16.4	294	22.6
CN(c1ncnc2[nH]ccc12)[C@H]1CC[C@H](CS(=O)(=O)N2CC(c3nnn[nH]3)C2)CC1 [Example 113, N-methyl-N-[trans-4-({[3-(1H-tetrazol-5-yl)azetidin-1-yl]sulfonyl}methyl)-cyclohexyl]-7H-pyrrolo[2,3-d]pyrimidin-4-amine]	1.55	111	9.99
CN(c1ncnc2[nH]ccc12)[C@H]1CC[C@H](CS(=O)(=O)N2CC(S(=O)(=O)c3ccccc3)C2)CC1 [Example 114, N-methyl-N-[trans-4-({[3-(phenylsulfonyl)azetidin-l-yl]sulfonyl}methyl)cyclo-hexyl]-7H-pyrrolo[2,3-d]-pyrimidin-4-amine]	3.05	63	9.2
CN(c1ncnc2[nH]ccc12)[C@H]1CC[C@H](CS(=O)(=O)N2CC(O)C2)CC1 [Example 115, 1-[({trans-4-[methyl(7H-pyrrolo[2,3-d]pyrimidin-4-yl)amino]cyclohexyl}-methyl)sulfonyl]azetidin-3-ol]	10.7	303	34.4
CN(c1ncnc2[nH]ccc12)[C@H]1CC[C@H](CS(=O)(=O)N2CC(S(=O)(=O)CC3CC3)C2)CC1 [Example 116, N-{trans-4-[({3-[(cyclopropylmethyl)-sulfonyl]azetidin-1-yl}sulfonyl)methyl]cyclo-hexyl}-N-methyl-7H-pyrrolo[2,3-d]pyrimidin-4-amine]	10.7	298	49.9
COC(=O)NC1CN(S(=O)(=O)C[C@H]2CC[C@H](N(C)c3ncnc4[nH]ccc34)CC2)C1 [Example 117, methyl {1-[({trans-4-[methyl(7H-pyrrolo[2,3-d]pyrimidin-4-yl)amino]-cyclohexyl}methyl)sulfonyl]azetidin-3-yl}carbamate]	11	382	32.4
Cc1ccc(N2CCN(S(=O)(=O)C[C@H]3CC[C@H](N(C)c4ncnc5[nH]ccc45)CC3)CC2)nc1 [Example 118, N-methyl-N-[trans-4-({[4-(5-methylpyridin-2-yl)piperazin-1-yl]sulfonyl}-methyl)cyclohexyl]-7H-pyrrolo[2,3-d]pyrimidin-4-amine]	16.7	255	50.8
Cc1cccc(N2CCN(S(=O)(=O)C[C@H]3CC[C@H](N(C)c4ncnc5[nH]ccc45)CC3)CC2)n1 [Example 119, N-methyl-N-[trans-4-({[4-(6-methylpyridin-2-yl)piperazin-1-yl]sulfonyl}-methyl)cyclohexyl]-7H-pyrrolo[2,3-d]pyrimidin-4-amine]	6.48	88.9	13.7
CN(c1ncnc2[nH]ccc12)[C@H]1CC[C@H](CS(=O)(=O)N2CCN(c3ccccn3)CC2)CC1 [Example 120, N-methyl-N-(trans-4-{[(4-pyridin-2-ylpiperazin-1-yl)sulfonyl]methyl}cyclo-hexyl)-7H-pyrrolo[2,3-d]-pyrimidin-4-amine]	8.43	208	22.3
CN(c1ncnc2[nH]ccc12)[C@H]1CC[C@H](CS(=O)(=O)N2CCN(c3ncccc3C(=O)NC3CC3)CC2)CC1 [Example 121, N-cyclopropyl-2-{4-[({trans-4-[methyl(7H-pyrrolo[2,3-d]pyrimidin-4-yl)amino]-cyclohexyl}methyl)sulfonyl]piperazin-1yl}nicotinamide]	10.4	595	43.1
CN(c1ncnc2[nH]ccc12)[C@H]1CC[C@H](CS(=O)(=O)N2CCN(c3ncccc3C#N)CC2)CC1 [Example 122, 2-{4-[({trans-4-[methyl(7H-pyrrolo[2,3-d]pyrimidin-4-yl)amino]cyclohexyl}-methyl)sulfonyl]piperazin-1-yl}nicotinonitrile]	12.1	271	17.6
CN(c1ncnc2[nH]ccc12)[C@H]1CC[C@H](CS(=O)(=O)N2CCN(Cc3ccccn3)CC2)CC1 [Example 123, N-methyl-N-[trans-4-({[4-(pyridin-2-ylmethyl)-piperazin-1-yl]sulfonyl}-methyl)cyclohexyl]-7H-pyrrolo[2,3-d]pyrimidin-4-amine]	13.7	323	49.8
CN(c1ncnc2[nH]ccc12)[C@H]1CC[C@H](CS(=O)(=O)N2CCSC2)CC1 [Example 124, N-methyl-N-{trans-4-[(1,3-thiazolidin-3-ylsulfonyl)-methyl]cyclohexyl}-7H-pyrrolo[2,3-d]pyrimidin-4-amine]	8.8	122	29.5
CN(c1ncnc2[nH]ccc12)[C@H]1CC[C@H](CS(=O)(=O)N2CCCC3(CNC(=O)C3)C2)CC1 (stereo partly drawn) [Example 127, 7-[({trans-4-[methyl(7H-pyrrolo[2,3-d]pyrimidin-4-yl)amino]cyclohexyl}-methyl)sulfonyl]-2,7-diazaspiro[4.5]decan-3-one]	14.4	1000	62.5
C[C@@H]1C[C@@H](CS(=O)(=O)N2CCC[C@@H](O)C2)CC[C@@H]1N(C)c1ncnc2[nH]ccc12 [Example 129, (3R)-1-[({(1S,3R,4S)-3-methyl-4-[methyl(7H-pyrrolo[2,3-d]pyrimidin-4-yl)amino]cyclohexyl}-methyl)sulfonyl]piperidin-3-ol]	1.7	19.4	6.89
C[C@@H]1C[C@@H](CS(=O)(=O)N2CCC[C@H](O)C2)CC[C@@H]1N(C)c1ncnc2[nH]ccc12 [Example 131, (3S)-1-[({(1S,3R,4S)-3-methyl-4-[methyl(7H-pyrrolo[2,3-d]pyrimidin-4-yl)amino]cyclohexyl}methyl)-sulfonyl]piperidin-3-ol]	5.28	32.5	12
CN(c1ncnc2[nH]ccc12)[C@H]1CC[C@H](CS(=O)(=O)N2CCC[C@@H](OC(=O)C(C)(C)C)C2)CC1 [Example 134, trans-(R)-1-((4-(methyl(7H-pyrrolo[2,3-d]pyrimidin-4-yl)amino)cyclohexyl)methylsulfonyl)piperidin-3-yl pivalate]	0.0227	3.89	0.129
